The molecules below were run on HCT-116 (human colorectal carcinoma) cells (assay: MTT cytotoxicity assay, HCT-116). Conditions: 24 h treatment, read-out: IC50 (nM ± SD) HCT-116.
Format: cell-based
Protocol: (§1) HTC116 (human colorectal carcinoma), HepG2 (human hepatocellular carcinoma), MCF-7 (human breast cancer), 16-HBE (human bronchial epithelium) and Caco-2 (human colorectal carcinoma) cell lines were purchased from American Type Culture Collection, Rockville, MD, USA. All cell lines were grown in RPMI medium supplemented with L-glutamine (2 mM), 10% fetal bovine serum (FBS), penicillin (100 U/mL), streptomycin (100 µg/mL) and gentamicin (5 μg/mL). Cells were maintained in log phase by seeding twice a week at a density of 3 × 10^8 cells/L in humidified 5% CO2 atmosphere, at 37 °C. In all experiments, after plating, cells were allowed to adhere overnight and then treated with the compounds or vehicle alone (control cells), whereas Caco-2 cells were treated 15 days after confluence, at which time the cells are differentiated in normal intestinal-like cells. No differences were found between cells treated with DMSO 0.1% and untreated cells in terms of cell number and viability.
(§2) Cytotoxic activity of the organotin compounds against human tumor cell lines (HCT-116, HepG2 and MCF-7) and human normal cells (16-HBE and intestinal-like differentiated Caco2 cells) was determined using the MTT colorimetric assay based on the reduction of 3-(4,5-dimethyl-2-thiazolyl)bromide-2,5-diphenyl-2H-tetrazolium (MTT) to purple formazan using mitochondrial dehydrogenases of living cells, as reported. This method is commonly used to illustrate inhibition of cellular proliferation. Monolayer cultures were treated for 24 h with various concentrations (0.01-1 µM) of the drugs. Cisplatin was used for comparison. Briefly, all cell lines were seeded at 1.0 × 10^4 cells/well in 96-well plates containing 200 μL RPMI. When appropriated, cells were washed with fresh medium and incubated with the compounds in RPMI. After incubation, cells were washed, and 50 μL FBS-free medium containing 5 mg/mL MTT was added. The medium was discarded after a 2 h incubation at 37 °C by centrifugation, and formazan blue formed in the cells was dissolved in DMSO. The absorbance, measured at 570 nm in a microplate reader (Bio-RAD, Hercules, CA, USA) of MTT formazan of control cells was taken as 100% of viability. The growth inhibition activity of compounds was estimated by comparison with the not-treated control. The values for the inhibitory concentration for 50% of the tested compounds (IC50) were calculated using a sigmoidal model using GraphPad Prism 5.02 from GraphPad Software (San Diego, CA, USA). Each experiment was repeated three times in triplicate to obtain the mean values.

Molecule	IC50
Ph3Sn(HtpO2) [Compound 6]	60 ± 5 nM
CCC[CH2][Sn]([CH2]CCC)([CH2]CCC)[O]c1ccn2ncnc2n1 [Compound 2, n-Bu3Sn(5tpO)]	70 ± 8 nM
n-Bu3Sn(HtpO2) [Compound 5]	101 ± 11 nM
CCC[CH2][Sn]([CH2]CCC)([CH2]CCC)[O]c1cc(C)nc2ncnn12 [Compound 4, n-Bu3Sn(mtpO)]	34 ± 3 nM

Each molecule was assayed on HepG2 (human hepatocellular cancer) cells (assay: MTT cytotoxicity assay, HepG2). Conditions: 24 h treatment, read-out: IC50 (nM ± SD) HepG2.
Format: cell-based
Protocol: as §1, §2

Molecule	IC50
Ph3Sn(HtpO2) [Compound 6]	63 ± 5 nM
CCC[CH2][Sn]([CH2]CCC)([CH2]CCC)[O]c1ccn2ncnc2n1 [Compound 2, n-Bu3Sn(5tpO)]	70 ± 6 nM
n-Bu3Sn(HtpO2) [Compound 5]	117 ± 10 nM
CCC[CH2][Sn]([CH2]CCC)([CH2]CCC)[O]c1cc(C)nc2ncnn12 [Compound 4, n-Bu3Sn(mtpO)]	53 ± 6 nM

These molecules were tested on MCF-7 (human breast cancer) cells (assay: MTT cytotoxicity assay, MCF-7). Conditions: 24 h treatment, read-out: IC50 (nM ± SD) MCF-7.
Format: cell-based
Protocol: as §1, §2

Molecule	IC50
Ph3Sn(HtpO2) [Compound 6]	102 ± 9 nM
CCC[CH2][Sn]([CH2]CCC)([CH2]CCC)[O]c1ccn2ncnc2n1 [Compound 2, n-Bu3Sn(5tpO)]	233 ± 21 nM
n-Bu3Sn(HtpO2) [Compound 5]	487 ± 47 nM
CCC[CH2][Sn]([CH2]CCC)([CH2]CCC)[O]c1cc(C)nc2ncnn12 [Compound 4, n-Bu3Sn(mtpO)]	118 ± 10 nM

What follows are molecules tested on intestinal normal-like differentiated Caco-2 cells (assay: MTT viability assay, normal-like differentiated Caco-2 cells). Conditions: MTT, 24 h; reduction seen in the 1–10 μM range.
Format: cell-based, human
Protocol: as §1
as §2, with “Monolayer cultures were treated for 24 h with various concentrations (0.01-1 µM) of the drugs.” left out
(§3) Formazan of control cells was taken as 100% viability and the 50% lethal concentrations of the synthesized complexes (LC50) were determined by plotting the graph of cell viability versus the concentrations. The selectivity index (SI) values were calculated for each compound by dividing the LC50 of normal differentiated Caco2 or 16-HBE cells by the IC50 of HCT-116 tumor cells. Each experiment was repeated three times in triplicate.

Molecule	Effect on cell survival, normal-like differentiated Caco-2 cells
Ph3Sn(HtpO2) [Compound 6]	did not affect the cell viability at any assayed concentration
CCC[CH2][Sn]([CH2]CCC)([CH2]CCC)[O]c1ccn2ncnc2n1 [Compound 2, n-Bu3Sn(5tpO)]	reduction of the cell survival
n-Bu3Sn(HtpO2) [Compound 5]	reduction of the cell survival
CCC[CH2][Sn]([CH2]CCC)([CH2]CCC)[O]c1cc(C)nc2ncnn12 [Compound 4, n-Bu3Sn(mtpO)]	reduction of the cell survival

Same assay, conditions: differentiated Caco-2, MTT, 24 h; concentration lethal to 50% of the normal cells; read-out: Normal-Like Intestinal Cells LC50

Molecule	CC50
CCC[CH2][Sn]([CH2]CCC)([CH2]CCC)[O]c1ccn2ncnc2n1 [Compound 2, n-Bu3Sn(5tpO)]	6000 ± 400 nM
n-Bu3Sn(HtpO2) [Compound 5]	12000 ± 1000 nM
CCC[CH2][Sn]([CH2]CCC)([CH2]CCC)[O]c1cc(C)nc2ncnn12 [Compound 4, n-Bu3Sn(mtpO)]	5000 ± 400 nM

What follows are molecules tested on human bronchial epithelial cells (16-HBE) (assay: MTT viability assay, 16-HBE cells). Conditions: 24 h, concentration lethal to 50% of the normal cells, read-out: 16-HBE Cells LC50.
Format: cell-based
Protocol: as §1
as §2, with “Monolayer cultures were treated for 24 h with various concentrations (0.01-1 µM) of the drugs.” left out
as §3

Molecule	CC50
CCC[CH2][Sn]([CH2]CCC)([CH2]CCC)[O]c1ccn2ncnc2n1 [Compound 2, n-Bu3Sn(5tpO)]	17000 ± 1000 nM
n-Bu3Sn(HtpO2) [Compound 5]	22000 ± 1000 nM
CCC[CH2][Sn]([CH2]CCC)([CH2]CCC)[O]c1cc(C)nc2ncnn12 [Compound 4, n-Bu3Sn(mtpO)]	11000 ± 1000 nM

Same assay, conditions: 24 h, reduction seen in the 1–10 μM range

Molecule	Effect on cell survival, 16-HBE cells
Ph3Sn(HtpO2) [Compound 6]	did not affect the cell viability at any assayed concentration
CCC[CH2][Sn]([CH2]CCC)([CH2]CCC)[O]c1ccn2ncnc2n1 [Compound 2, n-Bu3Sn(5tpO)]	reduction of the cell survival
n-Bu3Sn(HtpO2) [Compound 5]	reduction of the cell survival
CCC[CH2][Sn]([CH2]CCC)([CH2]CCC)[O]c1cc(C)nc2ncnn12 [Compound 4, n-Bu3Sn(mtpO)]	reduction of the cell survival

The molecules below were run on HCT-116 cells (assay: Mitochondrial transmembrane potential, DiOC6 flow cytometry). Conditions: 0.1 μM, 24 h, control 3.2%.
Format: cell-based, human
Protocol: Mitochondrial transmembrane potentials (Δψm) were assessed using flow cytofluorometry, with the cationic lipophilic dye 3,3′-dihexyloxacarbocyanine iodide(3) (DiOC6) (Molecular Probes, Inc., Life Technologies Italia, Monza, Italy), which accumulates in the mitochondrial matrix. Changes in mitochondrial membrane potential are indicated by a reduction in the DiOC6-induced fluorescence intensity. After 24 h treatment, cells were incubated with DiOC6 at a 40 nmol/L final concentration, for 15 min at 37 °C. After centrifugation, cells were washed with phosphate buffer saline (PBS) and suspended in 500 μL PBS. Then, samples of 1.0 × 10^4 cells were subjected to FACS analysis.

Molecule	Cells with dissipated mitochondrial membrane potential
Ph3Sn(HtpO2) [Compound 6]	25.1%
CCC[CH2][Sn]([CH2]CCC)([CH2]CCC)[O]c1ccn2ncnc2n1 [Compound 2, n-Bu3Sn(5tpO)]	23.5%
n-Bu3Sn(HtpO2) [Compound 5]	18.3%
CCC[CH2][Sn]([CH2]CCC)([CH2]CCC)[O]c1cc(C)nc2ncnn12 [Compound 4, n-Bu3Sn(mtpO)]	28.5%

These molecules were tested on HCT-116 cells (assay: Intracellular ROS, DCFH-DA flow cytometry). Conditions: 0.1 μM, 24 h, control 1.9%.
Format: cell-based, human
Protocol: ROS level was monitored by measuring fluorescence changes that resulted from intracellular oxidation of 2′,7′-dichlorofluorescin diacetate (DCFH-DA). DCFH-DA, at 10 μM final concentration, was added to the cell medium 30 min before the end of the treatment. The cells were collected using centrifugation for 5 min at 2000 rpm at 4 °C, washed, suspended in PBS and immediately subjected to FACS analysis. At least 1 × 10^4 cells were analyzed for each sample.

Molecule	AY, ROS production (DCFH-DA fluorescent cells)
Ph3Sn(HtpO2) [Compound 6]	25.3%
CCC[CH2][Sn]([CH2]CCC)([CH2]CCC)[O]c1ccn2ncnc2n1 [Compound 2, n-Bu3Sn(5tpO)]	22.5%
n-Bu3Sn(HtpO2) [Compound 5]	20.2%
CCC[CH2][Sn]([CH2]CCC)([CH2]CCC)[O]c1cc(C)nc2ncnn12 [Compound 4, n-Bu3Sn(mtpO)]	27.3%

Each molecule was assayed on HCT-116 cells (assay: Cell cycle analysis, propidium iodide flow cytometry). Conditions: HCT-116, 24 h of treatment.
Format: cell-based, human
Protocol: Cell cycle stage was analyzed using flow cytometry. Aliquots of 1.0 × 10^6 cells were harvested using centrifugation, washed with PBS and incubated in the dark in a PBS solution containing Triton X100 (0.1%, v/v), 20 μg/mL propidium iodide (PI) and 200 µg/mL RNase, for 30 min, at room temperature. Then, samples were immediately subjected to FACS analysis. At least 1 × 10^4 events were analyzed for each sample.

Molecule	Effect on cell cycle distribution
Ph3Sn(HtpO2) [Compound 6]	cell cycle arrest in phase G2/M
CCC[CH2][Sn]([CH2]CCC)([CH2]CCC)[O]c1ccn2ncnc2n1 [Compound 2, n-Bu3Sn(5tpO)]	block of cell duplication in the G0/G1 phase
n-Bu3Sn(HtpO2) [Compound 5]	block of cell duplication in the G0/G1 phase
CCC[CH2][Sn]([CH2]CCC)([CH2]CCC)[O]c1cc(C)nc2ncnn12 [Compound 4, n-Bu3Sn(mtpO)]	block of cell duplication in the G0/G1 phase

What follows are molecules tested on p53 (assay: Western blot, p53 level in HCT 116 cells). Conditions: 24 h, immunoblotting.
Format: cell-based, human
Protocol: (§4) After treatment with the compound, protein extracts were prepared and equal amounts of protein samples (80 μg/lane), subjected to SDS-PAGE, were transferred to nitrocellulose membrane as previously reported. The immunoblot was incubated overnight at 4 °C with blocking solution (5% skim milk), followed by incubation with anti-p21 (F-5, Cat No SC-6246 Santa Cruz Biotechnology) or anti-p53 (DO-1, Cat No SC-126, Santa Cruz Biotechnology) for 1 h at room temperature. Blots were washed two times with Tween 20/Tris-buffered saline (TTBS) and incubated with a 1:2000 dilution of horseradish peroxidase (HRP)-conjugated anti-IgG antibody (Dako Denmark, Glostrup, Denmark) for 1 h at room temperature. Blots were again washed five times with TTBS and then developed using enhanced chemiluminescence (Amersham Life Science, Arlington Heights, IL, USA.). Immunoreactions were also performed using β-actin antibody as loading controls.

Molecule	Effect on level of p53
CCC[CH2][Sn]([CH2]CCC)([CH2]CCC)[O]c1ccn2ncnc2n1 [Compound 2, n-Bu3Sn(5tpO)]	did not vary
n-Bu3Sn(HtpO2) [Compound 5]	did not vary
CCC[CH2][Sn]([CH2]CCC)([CH2]CCC)[O]c1cc(C)nc2ncnn12 [Compound 4, n-Bu3Sn(mtpO)]	did not vary

These molecules were tested on p21^WAF1 (assay: Western blot, p21WAF1 level in HCT 116 cells). Conditions: 24 h, immunoblotting.
Format: cell-based, human
Protocol: as §4

Molecule	Effect on level of p21
CCC[CH2][Sn]([CH2]CCC)([CH2]CCC)[O]c1ccn2ncnc2n1 [Compound 2, n-Bu3Sn(5tpO)]	did not vary
n-Bu3Sn(HtpO2) [Compound 5]	did not vary
CCC[CH2][Sn]([CH2]CCC)([CH2]CCC)[O]c1cc(C)nc2ncnn12 [Compound 4, n-Bu3Sn(mtpO)]	did not vary

From paper PMC7070731, “Cytotoxic Activity of Organotin(IV) Derivatives with Triazolopyrimidine Containing Exocyclic Oxygen Atoms” (Molecules, 2020)
